From patent US12661362B2, “Methods for the prevention and treatment of hearing loss” (Ting Therapeutics LLC, priority 2020, dated 2026)

Legend:
[1] = test system: FVB/NJ mice; assay: Noise-induced hearing loss in FVB/NJ mice (ABR, DPOAE, wave-I, CtBP2 ribbon count); type: in vivo, mouse
From the text: Now referring to FIGS. 4A-4F Niclosamide attenuates Cisplatin-induced hearing loss in FVB/NJ mice. Mice: Procedures used with mice were approved by the Institutional Animal Care and Use Committee (IACUC) at the Creighton University. For functional assessments including Cisplatin and noise exposure experiments 5 to 7-week-old FVB/NJ mice obtained from Jackson Laboratory (Bar Harbor, ME, USA) were used, with a mix of males and females across experiments. For the Cisplatin and noise studies, FVB/NJ mice were treated with 10 mg/kg Niclosamide, through intraperitoneal (IP) injection. Niclosamide, was dissolved in 1% DMSO in normal saline (0.9% NaCl solution) and vortexed multiple times before injections. Treatment started 24 hours before the Cisplatin or noise-exposure and continued once daily for 3 more days. Cisplatin was injected IP at 30 mg/kg divided into 2 doses per day. Animals were given 1 mL warm sterile normal saline subcutaneously twice a day before and for 7 days after Cisplatin treatment to prevent dehydration.
Now referring to FIG. 4A, ABR tests were performed 2-3 days before Cisplatin exposure, and 5 days post-Cisplatin exposure. The experimental groups included: Cisplatin and 1% DMSO, Cisplatin and Niclosamide, Niclosamide, only, and age-matched controls receiving normal saline. For the noise experiment, auditory tests were performed 2-3 days prior to noise exposure (paradigm described below), at post-exposure day-1 to monitor temporary threshold shift (TTS) and at post-exposure day-14 to monitor permanent threshold shift (PTS). Experimental groups included: noise-exposure and normal saline, noise-exposure and Niclosamide, Niclosamide-only, and age-matched controls. Following the final auditory function measurements, mice were euthanized, and cochleae were collected for morphological assessment. Based on the results of FVB/NJ ABR/DPOAE threshold variances and power analysis, ten FVB/NJ mice per group (5 of each sex) were used in this study.
Now referring to FIGS. 5B-5F, mice were injected with 10 mg/kg Niclosamide, per IP injection once per day for four consecutive days: one day before noise exposure (8-16 kHz at 105 dB SPL), the day of the noise exposure, and two days after noise exposure. Control animals received vehicle injections on the same schedule.
Now referring to FIG. 5B, Noise-induced ABR threshold shifts were obtained by subtraction of the pre-exposure from the post-exposure thresholds.
Now referring to FIG. 5C, DPOAE amplitudes were measured at f2 frequency ranging from 10 to 80 dB SPL in mice. […] A two-factor ANOVA (group x frequency) was used to compare pre-exposure amplitudes to Day 15 amplitudes.
Now referring to FIG. 5D, mean wave-I amplitudes at 10, 20, 28.3, and 40 kHz were measured at Day 15 post-noise exposure. Amplitudes from the 10-90 dB SPL stimulus intensity were compared between groups in the pre-noise test using a two-factor ANOVA (group x stimulus level), and no group differences were detected. At Day 15, only the 60-90 dB SPL stimulus levels were used because many of the subjects had no responses below 60 dB SPL.
Now referring to FIG. 5E to assess the protection of the ribbon synapses, the cochlear samples were immunostained with CtBP2, one of the most abundant proteins in synaptic ribbon bodies (Kujawa S G, et al. 2006). […] Now referring to FIG. 5F, […] hair cell count of ribbon synapses. […] In the same cochleae, OHCs were also counted. […] The frequency region of 16 kHz was used for CtbP2 ribbon count because this has been shown that ribbons are more abundant in this frequency region.

[2] = following 2,000 mg oral use; cited from earlier work

Structure (SMILES): O=C(Nc1ccc([N+](=O)[O-])cc1Cl)c1cc(Cl)ccc1O [Niclosamide, 5-chloro-N-(2-chloro-4-nitrophenyl)-2-hydroxy-benzamide]
- noise-induced ABR threshold shifts versus noise exposed group ([1]; 8 kHz to 63 kHz, Day 14, 10 mg/kg IP): lower threshold shifts
- synaptic ribbon (CtBP2) survival versus saline-noise group ([1]; 16 kHz): more synaptic ribbon survival
- proportion of surviving OHCs versus saline-noise animals ([1]; 32 kHz): similar
- wave-I amplitudes versus noise-exposed group ([1]; 80 and 90 dB SPL, Day 15): higher amplitudes
- wave-I amplitude (cochlear nerve activity) versus age-matched controls ([1]; Day 15): comparable to aged matched controls
- DPOAE amplitudes versus noise-saline group ([1]; day-15 post-noise exposure): significantly higher
- Cmax [2]: 18 µM
